Values belong to the compound of their own block, whether it stands above or below them.
Legend:
[1] = In vivo distribution of Entecavir in mice; details: Entecavir 0.1 mg/kg, 5 consecutive days, combination with high dosage of polysaccharides (as Example 5), n = 6
Method: The bupleurum root polysaccharides enhance the distribution of Entecavir in liver, and reduce its distribution in other tissues.
The drug of Example 5 is used.
20 male mice are fasted for one night, but free accessed to water before the experiment. The animals are divided into three groups according to body weight, including a treatment group with Entecavir, and treatment groups with bupleurum root polysaccharides combined with Entecavir. The animals are administered for 5 consecutive days. The dosage of Entecavir is 0.1 mg/kg, and the corresponding dosage of bupleurum root polysaccharides in Example 5 is a high dosage, one-half of which is a low dosage. The animals are sacrificed after the last administration and the blood, heart, liver, spleen, lung, kidney, intestine, stomach, bone marrow, and brain are taken. 100 μL of plasma is directly precipitated by adding 800 μL of acetonitrile, and the supernatant is frozen and centrifuged. 500 μL of the supernatant is blow dried with nitrogen, and 100 μL of the mobile phase is added for reconstitution, and injected for analysis. 0.1 g of the tissue is added with 1 mL of water and homogenized. The homogenate is treated following the treatment method for the plasma.
Effect of bupleurum root polysaccharides on in vivo distribution of Entecavir (ng/mL)

HBV = test: Inhibition of HBV replication in HepG2.215 cells (HBsAg/HBeAg by ELISA, HBV gene by fluorescent quantitative PCR); type: cell-based, Hepatitis B Virus; details: for Expression of HBV gene / HBeAg / HBsAg: normalized, 100% for control group; for HBeAg / HBsAg: HepG2.215 supernatant, 48 h
Method: The drug of Example 4 is used. The concentration of Adefovir Dipivoxil was 1 μmol, and the vinegar-baked bupleurum root polysaccharides are at a medium dosage in corresponding dosage, one-half of the medium dosage is a low dosage, and twice of the medium dosage is a high dosage.
The experiment is started with HepG2.215 cells that were grown to 80% confluence.
The cells were assigned to 5 groups, comprising a blank control group, a treatment group with Adefovir Dipivoxil, a treatment group with Adefovir Dipivoxil in combination with high dosage of vinegar-baked bupleurum root polysaccharides, a treatment group with Adefovir Dipivoxil in combination with medium dosage of vinegar-baked bupleurum root polysaccharides, and a treatment group with Adefovir Dipivoxil in combination with low dosage of vinegar-baked bupleurum root polysaccharides. Culturing for 48 h after administration, the supernatant is collected, the expression of the HBV gene is determined by fluorescent quantitative PCR, and the HBsAg and HBeAg concentrations are determined by ELISA.
The experiment is started with HepG2.215 cells that are grown to 80% confluence. The cells were assigned to 5 groups, comprising a blank control group, a treatment group with Tenofovir, a treatment group with Tenofovir in combination with high, medium, and low dosage of vinegar-baked bupleurum root polysaccharides. The concentration of Tenofovir is 0.8 μmol, the medium dosage of vinegar-baked bupleurum root polysaccharides is a corresponding dosage in Example 7, one-half of which is the low dosage, and twice of which is the high dosage. Culturing for 48 h after administration, the supernatant is collected, the expression of the HBV gene is determined by fluorescent quantitative PCR, and the HBsAg and HBeAg concentrations are determined by ELISA.

[2] = Tissue distribution of oxymatrine (OM) and its metabolite matrine (M) in rats, LC-MS; type: in vivo, rat; details: po, OM 54 mg/kg single administration, sampled at 20, 60, 240 min, n = 6
Method: The pharmaceutical composition of the present invention enhances the distribution of oxymatrine (OM) in the rat liver. 36 rats are acclimated for 7 days, and randomized into a treatment group with oxymatrine (OM) alone, and a treatment group with a combined drug of the present invention (drug in Example 1). Wherein, the dosage of oxymatrine (OM) is 54 mg/kg, and the bupleurum root polysaccharides are used at a corresponding dosage in Example 1. After a single administration, blood is sampled from the abdominal aorta respectively at 20 min, 60 min, and 240 min. The rat is sacrificed, from which the liver, spleen, lung, kidney, and heart are removed. […] The concentrations of oxymatrine (OM) and its metabolite (M) are determined by LC-MS, the content in the tissue and the area under the curve are calculated.

[3] = system: duck hepatitis B virus (DHBV); test: Effect against duck hepatitis B virus in DHBV-infected ducklings; type: in vivo; details: DHBV-infected ducks; Telbivudine 80 mg·kg^−1 alone, gastric perfusion twice a day, 10 days; 100% for control group
[4] = Plasma and tissue distribution of Lamivudine in rats, liquid chromatography; type: in vivo, rat; details: Lamivudine 15 mg/kg, n = 6
Method: The pharmaceutical composition of the present invention enhances the Lamivudine level in the rat liver. Grouping of the test animals and administration are the same as the Example 1 (except that the drug used is the same as Example 3). The dosage of Lamivudine is 15 mg/kg, and the bupleurum root polysaccharides are at a corresponding dosage. The Lamivudine content was determined by liquid chromatography. 0.1 mL of plasma is added with 10 μL of 0.2 mol ammonium acetate, and then with 1 mL of acetonitrile, vortexed, and centrifuged. The supernatant is collected and injected for determination. 0.1 g of the tissue sample is added with 1 mL of physiological saline, homogenized, and treated following the same method as for the plasma sample. The Lamivudine contents in the plasma and tissue sample are determined.

[5] = drug modified with monophosphorylation, compared with the control group; cited from earlier work
[6] = HepG2.215, 48 h, text summary of Table 4
[7] = Adefovir Dipivoxil 1 μmol alone

Compound: CC(C)(C)C(=O)OCOP(=O)(COCCn1cnc2c(N)ncnc21)OCOC(=O)C(C)(C)C [Adefovir Dipivoxil]
Expression of HBV gene (HBV; HepG2.215, 48 h, Adefovir Dipivoxil 1 μmol alone): 50 ± 5.3%
inhibition rate for gene expression (HBV; [6]): 50%
inhibition rate on the replication of HBV (HBsAg, HBeAg) (HBV; [6]): 60-65%
HBeAg (HBV; [7]): 40 ± 3.4%
HBsAg (HBV; [7]): 35 ± 1.2%

Compound: C[C@H](Cn1cnc2c(N)ncnc21)OCP(=O)(O)O [Tenofovir]
Expression of HBV gene (HBV; HepG2.215, 48 h, Tenofovir 0.8 μmol alone): 45.2 ± 5.3%
HBeAg (HBV; Tenofovir 0.8 μmol alone): 39.8 ± 2.4%
HBsAg (HBV; Tenofovir 0.8 μmol alone): 33.2 ± 1.2%

Compound: Cc1cn([C@@H]2C[C@@H](O)[C@H](CO)O2)c(=O)[nH]c1=O [Telbivudine]
Expression of HBV gene [3]: 50.5 ± 5.3%
HBeAg [3]: 37.2 ± 3.4%
HBsAg [3]: 30 ± 1.3%

Further lines, with some results ahead:

Entecavir concentration, Marrow ([1]; mouse bone marrow): 18.9 ng/L
Entecavir concentration, Heart ([1]; mouse heart): 26.14 ng/L
Entecavir concentration, Instine ([1]; mouse intestine): 24.3 ng/L
Entecavir concentration, Kidney ([1]; mouse kidney): 27.5 ng/L
Entecavir concentration, Liver ([1]; mouse liver): 26.8 ng/L
Entecavir concentration, Lung ([1]; mouse lung): 26.3 ng/L
Entecavir concentration, Plasma ([1]; mouse plasma): 30.6 ng/L
Entecavir concentration, Spleen ([1]; mouse spleen): 28.4 ng/L
Entecavir concentration, Stomach ([1]; mouse stomach): 25.6 ng/L
Compound: C=C1[C@H](CO)[C@@H](O)C[C@@H]1n1cnc2c(=O)[nH]c(N)nc21 [Entecavir]

AUC ([2]; rat heart, read-out: AUC of oxymatrine, Heart): 125 ng·h/mL
AUC ([2]; rat kidney, read-out: AUC of oxymatrine, Kidney): 69.7 ng·h/mL
AUC ([2]; rat liver, read-out: AUC of oxymatrine, Liver): 125 ng·h/mL
AUC ([2]; rat lung, read-out: AUC of oxymatrine, Lung): 366 ng·h/mL
AUC ([2]; rat plasma, read-out: AUC of oxymatrine, Plasma): 520 ng·h/mL
AUC ([2]; rat spleen, read-out: AUC of oxymatrine, Spleen): 64.9 ng·h/mL
Compound: O=C1CCC[C@@H]2[C@H]3CCC[N+]4([O-])CCC[C@@H](CN12)[C@@H]34 (some centres unmarked) [OM, oxymatrine]

AUC ([4]; rat heart, read-out: AUC of Lamivudine, Heart): 26.8 ng·h/mL
AUC ([4]; rat kidney, read-out: AUC of Lamivudine, Kidney): 24.3 ng·h/mL
AUC ([4]; rat liver, read-out: AUC of Lamivudine, Liver): 27.3 ng·h/mL
AUC ([4]; rat lung, read-out: AUC of Lamivudine, Lung): 23.1 ng·h/mL
AUC ([4]; rat plasma, read-out: AUC of Lamivudine, Plasma): 25.4 ng·h/mL
AUC ([4]; rat spleen, read-out: AUC of Lamivudine, Spleen): 30.2 ng·h/mL
AUC ([4]; rat stomach, read-out: AUC of Lamivudine, Stomach): 28.8 ng·h/mL
Compound: Nc1ccn([C@@H]2CS[C@H](CO)O2)c(=O)n1 [Lamivudine]
increase of AUC [5]: 11.2 times
increase of the concentration of Lamivudine in the liver [5]: 7.7 times

Source: US10729713B2, “Pharmaceutical composition for treating hepatitis, liver fibrosis, and liver cancer” (GUANGDONG PROVINCIAL HOSPITAL OF CHINESE MEDICINE, priority 2016, dated 2020)
